Source: patent publication US7521447B2, “P38 inhibitors and methods of use thereof” (Array Biopharma Inc., priority 2003, dated 2009)

Legend:
activated p38α enzyme = activated p38α enzyme (Homo sapiens, UniProt Q16539); test: p38 Biochemical Assay; set-up: key: An “active” compound is defined as a compound having an IC50 below 500 nM; conditions: 5 nM activated p38α, 1 uM ATF-2 substrate, 10 μM ATP
Procedure: P38 activity was assayed at room temperature in a 100 μl reaction containing 5 nM activated p38α enzyme and 1 uM ATF-2 (Activating Transcription Factor 2 fusion protein) as the substrate in 25 mM HEPES (pH 7.4), 100 μM Vanadate, 1 mM DTT, 10 mM MgCl2 and 10 μM [[…]-^33P]-ATP (˜0.1 μCi P^33/reaction). The reaction was terminated after 30-40 minutes by adding 25% TCA, let stand for 5 minutes and then transferred directly to a GF-B membrane filter plate. The filter was washed twice for 30 seconds with 0.5% phosphoric acid using a Tomtec Mach III Automated Harvestor. After washing, the vacuum was continued for 30 seconds to dry the filter. Approximately 30 μl of scintillant was added per well to the filter plate and then read in a Liquid Scintillation Counter (Packard TopCount HTS).

[1] = test system: LPS-induced TNF-α secretion from human peripheral blood mononuclear cells (PBMC); test: PBMC Assay: inhibition of LPS-induced TNF-α secretion; assay type: cell-based; set-up: key: An “active” compound is defined as a compound having an IC50 below 500 nM; conditions: LPS-stimulated human PBMC, TNF-α ELISA
Procedure: The ability of compounds of this invention to inhibit TNF-α production was assessed by using human peripheral blood mononuclear cells (“PBMC”) which synthesize and secrete TNF-α when stimulated with lipopolysaccharide.
Compound test solutions were made by making 5 fold serial dilutions in DMSO, which dilutions were then diluted to 5× stocks by diluting with MEM, 2% heat inactivated fetal bovine serum (“FBS”), 20 mM HEPES, 2 mM L-glutamine, and 1% penicillin/streptomycin.
PBMC's were isolated from human blood as follows. Whole blood samples were collected from human volunteers into Vacutainer™ CPT from Becton Dickinson. Tubes were mixed and centrifuged at room temperature (18-25° C.) in a horizontal rotor for a minimum of 15 minutes at 1500-1800 RCF (relative centrifugal force). For each donor, the buffy coat layers were pooled into a single tube and washed twice with phosphate buffered saline (“PBS”). The cell pellet was resuspended in MEM, 2% heat inactivated fetal bovine serum (“FBS”), 20 mM HEPES, 2 mM L-glutamine, and 1% penicillin/streptomycin. Total cell number was determined using a hemocytometer and the cell suspension was adjusted to 2×10^6 cells/mL.
0.1 mL of cell suspension was added to each well of a 96-well cell culture plate. 30 μL of a compound test solution was added, and the cells were incubated in a 37° C./5% CO2 incubator for 1 hour. 20 μL of 7.5 ng/mL lipopolysaccharide (LPS E. Coli K-235) was then added to each well, and the cells were returned to the 37° C./5% CO2 incubator for 16-20 hours. The cells were centrifuged for 15 minutes at 1100 RCF. Approximately 0.12 mL of the supernatant was transferred into a clean 96 well polypropylene plate. The samples were either assayed immediately or were stored at −80° C. until ready for assay. TNF-α levels were determined in each sample using a human TNF-α ELISA assay such as that described below.
TNF-α levels were determined using the following assay. TNF-alpha antibody coated plates were prepared by adding 150 μL of 2 μg/mL anti-TNF-α purified mouse monoclonal IgG in Carbonate-Bicarbonate buffer (BupH™ Carbonate-Bicarbonate Buffer Pack) to wells of a 96-well Immulon 4 plate (Immulon 4 ELISA Flat Bottom Plate; Dynex, catalog number 011-010-3855) and incubated overnight at 2-8° C. Coating solution was removed and 200 μL of “blocking buffer” (20 mM HEPES pH 7.4, 150 mM NaCl, 2% BSA) was added and plates were stored 2-8° C. until ready to use. A ten-point recombinant human TNF-α standard curve was prepared by a 1:2 serial dilution in “sample diluent” (20 mM HEPES, pH 7.4, 150 mM NaCl, 2 mM MgCl2, 1% BSA) with a top concentration of 6000 pg/mL.
Blocking solution was removed from TNF-α ELISA plates by washing five times with 300 μL of “wash buffer” (20 mM HEPES, pH 7.4, 150 mM NaCl, 2 mM MgCl2, 0.02% Tween-20). 50 μL of “sample diluent” was added to all wells, and then either 50 μL of a TNF-α standard curve solution or test compound supernatant was added to all wells. The plate was incubated at room temperature for one hour with shaking (300 rpm). The plate was washed wash five times with 300 μL “wash buffer”. 100 μL of 0.2 μg/mL biotinylated goat anti-human TNF-α in “antibody diluent” (20 mM HEPES, pH 7.4, 150 mM NaCl, 2 mM MgCl2, 1% BSA, 0.02% Tween-20) was added per well, and the plate was incubated at room temperature for one hour with shaking (300 rpm). The plate was washed wash five times with 300 μL “wash buffer” per well. 100 μL of 0.02 μg/mL streptavidin alkaline phosphatase in “antibody diluent” was added per well, and the plate was incubated at room temperature for one hour with shaking (300 rpm). The plate was washed wash five times with 300 μL wash buffer per well. 200 μL of 1 mg/mL pNPP (p-nitrophenyl phosphate) in diethanolamine buffer with 0.5 mM MgCl2 was added per well, and the plate was incubated for 30 to 45 minutes at room temperature with shaking (300 rpm). […]

Chain of activated p38α enzyme (Q16539 whole entry, the tested form may be a part): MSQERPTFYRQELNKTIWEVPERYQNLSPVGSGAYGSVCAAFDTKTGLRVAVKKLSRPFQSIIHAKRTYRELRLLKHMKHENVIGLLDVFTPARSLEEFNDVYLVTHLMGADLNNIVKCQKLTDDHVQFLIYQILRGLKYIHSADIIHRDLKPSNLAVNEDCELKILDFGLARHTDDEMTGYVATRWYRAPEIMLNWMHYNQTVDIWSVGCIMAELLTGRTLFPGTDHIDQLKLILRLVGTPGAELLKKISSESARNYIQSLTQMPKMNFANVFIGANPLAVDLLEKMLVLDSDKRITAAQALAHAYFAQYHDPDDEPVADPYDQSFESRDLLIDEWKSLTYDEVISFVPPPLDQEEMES

SMILES	p38 Inhibition IC50 (nM) (activated p38α enzyme)	PBMC IC50 (nM) [1]
CC(C)Cn1ncc2cc(C(O)c3ccc(F)cc3F)ccc21 (stereo not drawn) [Compound 4f-1, (2,4-difluorophenyl)-(1-isobutyl-1H-indazol-5-yl)-methanol]	active	active
CC(C)Cn1ncc2cc(C(O)c3ccc(F)cc3)ccc21 (stereo not drawn) [Compound 4f-2, (4-fluorophenyl)-(1-isobutyl-1H-indazol-5-yl)-methanol]	active	active
CC(C)Cn1ncc2cc(C(O)c3ccc(Cl)cc3Cl)ccc21 (stereo not drawn) [Compound 4f-9, (2,4-dichlorophenyl)-(1-isobutyl-1H-indazol-5-yl)-methanol]	active	inactive
CC(C)Cn1ncc2cc(C(=O)c3ccc(F)cc3F)ccc21 [Compound 5f-1, (2,4-difluorophenyl)-(1-isobutyl-1H-indazol-5-yl)-methanone]	active	active
CC(C)Cn1ncc2cc(C(=O)c3ccc(F)cc3)ccc21 [Compound 5f-2, (4-fluorophenyl)-(1-isobutyl-1H-indazol-5-yl)-methanone]	active	active
CC(C)Cn1ncc2cc(C(=O)c3ccc(Cl)cc3F)ccc21 [Compound 5f-7, (4-chloro-2-fluorophenyl)-(1-isobutyl-1H-indazol-5-yl)-methanone]	active	active
CC(C)Cn1ncc2cc(C(=O)c3ccc(Cl)cc3Cl)ccc21 [Compound 5f-9, (2,4-dichlorophenyl)-(1-isobutyl-1H-indazol-5-yl)-methanone]	active	active
Cc1ccccc1C(=O)c1ccc2c(cnn2CC(C)C)c1 [Compound 5f-10, (1-isobutyl-1H-indazol-5-yl)-O-tolyl-methanone]	active	active
CC(C)Cn1ncc2cc(C(=NO)c3ccc(F)cc3F)ccc21 [Compound 7f-1, (2,4-difluorophenyl)-(1-isobutyl-1H-indazol-5-yl)-methanone oxime]	active	active
CC(C)Cn1ncc2cc(C(=NO)c3ccc(F)cc3)ccc21 [Compound 7f-2, (4-fluorophenyl)-(1-isobutyl-1H-indazol-5-yl)-methanone oxime]	active	active
CCON=C(c1ccc2c(cnn2CC(C)C)c1)c1ccc(F)cc1F [Compound 7f-3, (2,4-difluorophenyl)-(1-isobutyl-1H-indazol-5-yl)-methanone O-ethyl-oxime]	active	active
CC(C)Cn1ncc2cc(Oc3ccc(F)cc3)c(C(=O)NCCN(C)C)cc21 [Compound 11g-10, 5-(4-fluorophenoxy)-1-isobutyl-1H-indazole-6-carboxylic acid (2-dimethylaminoethyl)-amide]	active	active
